A short description of data set [1]: Toxicity in mouse B16-4A5 cells assessed as inhibition of cell proliferation at 1 uM in presence of 1 mM theophylline after 72 hrs by WST8 dye reduction assay. In kind it is cell-based.
A short description of data set [2]: Toxicity in mouse B16-4A5 cells assessed as inhibition of cell proliferation at 30 uM in presence of 1 mM theophylline after 72 hrs by WST8 dye reduction assay. In kind it is cell-based. (Tetrazolium dyes change colour on reduction, which living cells bring about.)
The nature of data set [3]: cells. The note with it: Mus musculus, B16-4A5, 72 h, read-out: INH.
Description: Inhibition of theophylline-stimulated melanogenesis in mouse B16-4A5 cells at 30 uM after 72 hrs
The nature of data set [4]: cells. The note with it: Mus musculus, B16-4A5, 72 h, read-out: INH. The source holds these as a separate data set.
Description: Inhibition of theophylline-stimulated melanogenesis in mouse B16-4A5 cells at 3 uM after 72 hrs
Data set [5] can be described thus: Toxicity in mouse B16-4A5 cells assessed as inhibition of cell proliferation at 10 uM in presence of 1 mM theophylline after 72 hrs by WST8 dye reduction assay. In kind it is cell-based.
In data set [6] the target is T1, Tyrosinase (Agaricus bisporus) (UniProt O42713).
T1 sequence (whole entry): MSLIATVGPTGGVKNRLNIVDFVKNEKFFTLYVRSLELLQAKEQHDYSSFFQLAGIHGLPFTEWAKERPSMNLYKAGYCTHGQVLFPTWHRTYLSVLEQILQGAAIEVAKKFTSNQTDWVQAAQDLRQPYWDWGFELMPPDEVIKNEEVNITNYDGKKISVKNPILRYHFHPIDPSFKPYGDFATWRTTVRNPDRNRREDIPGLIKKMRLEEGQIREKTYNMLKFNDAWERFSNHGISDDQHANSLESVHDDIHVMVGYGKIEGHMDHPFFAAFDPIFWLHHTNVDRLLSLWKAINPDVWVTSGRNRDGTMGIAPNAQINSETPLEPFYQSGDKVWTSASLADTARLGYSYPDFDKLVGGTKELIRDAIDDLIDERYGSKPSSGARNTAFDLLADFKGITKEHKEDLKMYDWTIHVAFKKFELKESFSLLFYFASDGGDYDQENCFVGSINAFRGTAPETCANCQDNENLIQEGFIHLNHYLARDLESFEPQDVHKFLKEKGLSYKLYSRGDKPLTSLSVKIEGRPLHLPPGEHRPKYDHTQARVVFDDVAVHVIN
As to the kind of experiment: Inhibition of mushroom tyrosinase at 3 uM.

Data set [7] in a line: Toxicity in mouse B16-4A5 cells assessed as inhibition of cell proliferation at 3 uM in presence of 1 mM theophylline after 72 hrs by WST8 dye reduction assay. Format: cell-based.
Data set [8] has as its target T1, Tyrosinase (Agaricus bisporus). Nature of the data set: Inhibition of mushroom tyrosinase at 1 uM.
A short description of data set [9]: cells. The note with it: Mus musculus, B16-4A5, 72 h, read-out: INH. This is another data set of the same source.
Description: Inhibition of theophylline-stimulated melanogenesis in mouse B16-4A5 cells at 10 uM after 72 hrs
Data set [10] has as its target T1, Tyrosinase (Agaricus bisporus). As to the kind of experiment: Inhibition of mushroom tyrosinase assessed as inhibition of melanin production from dopachrome by autoxidation at 100 uM.
The nature of data set [11]: cells. Particulars: Mus musculus, B16-4A5, 72 h, read-out: INH. This is another data set of the same source.
Description: Inhibition of theophylline-stimulated melanogenesis in mouse B16-4A5 cells at 1 uM after 72 hrs
Data set [12] in a line: Toxicity in mouse B16-4A5 cells assessed as inhibition of cell proliferation in presence of 1 mM theophylline after 72 hrs by WST8 dye reduction assay. In kind it is cell-based.

Here are results for eight compounds from ChEMBL document CHEMBL1157646, “Melanogenesis inhibitors from the desert plant Anastatica hierochuntica in B16 melanoma cells” (Bioorg Med Chem, 2010).

In general, IC50 refers to the concentration at which inhibition is half-maximal.

The structures appear in SMILES notation. Calls of active or inactive are those of the source. The calls are words filed in the database; no cut-off is given here.

Consider `O=Cc1ccc(O)c(O)c1` [PROTOCATECHUALDEHYDE], for which the inhibition at 72 h, 1 µM in data set [1] was -4.7%. Also, the inhibition at 72 h, 30 µM in data set [2] is 11.4%. For the same compound, the inhibition at 30 µM in “cells [3]” was determined as 57.9%. Moreover, the inhibition at 3 µM in “cells [4]” is 13.8%. Further, in data set [5], the inhibition at 72 h, 10 µM is -3.7%. Moreover, the inhibition in data set [6] is 2.3%; in data set [8] it was 3.1%. In addition, the inhibition at 72 h, 3 µM in [7] was -4.7%. In the data set “cells [9]”, the inhibition at 10 µM is 40.4%. For the same compound, the inhibition result in data set [10] is “inactive”. In addition, the inhibition at 1 µM in “cells [11]” amounted to 8.5%.

Regarding `COc1cc(C(O)C(CO)Oc2ccc(/C=C/C=O)cc2OC)ccc1O` (stereo not drawn), the inhibition at 72 h, 1 µM in data set [1] was 2.2%. The inhibition at 72 h, 30 µM in data set [2] amounted to 91.5%. In addition, in [5], the inhibition at 72 h, 10 µM is 68.6%. Further, in data set [7], the inhibition at 72 h, 3 µM came out at 13.6%. In the data set “cells [9]”, the inhibition at 10 µM is below 15.4%. Also, in data set [12], the IC50 at 72 h is 6.9 µM.

As to `COc1cc([C@H]2Oc3c(OC)cc(/C=C/C=O)cc3[C@@H]2CO)ccc1O`, the inhibition at 72 h, 1 µM in data set [1] came out at 3.8%. For the same compound, the inhibition at 72 h, 30 µM in [2] was 40.3%. Besides, in “cells [3]”, the inhibition at 30 µM amounted to 79.1%. Also, in “cells [4]”, the inhibition at 3 µM is 2.1%. Besides, the inhibition at 72 h, 10 µM in data set [5] worked out at 13.6%. Moreover, the inhibition at 72 h, 3 µM in data set [7] worked out at 5.5%. The inhibition at 10 µM in the data set “cells [9]” is 28.4%. In data set [12], the IC50 at 72 h was above 100 µM. The inhibition result in [10] is “inactive”. In the data set “cells [11]”, the inhibition at 1 µM was -2.8%.

As for `O=C1C[C@@H](c2ccc(O)cc2)Oc2cc3oc4cc(O)c(O)cc4c3c(O)c21` [ANASTATIN A], in data set [2], the inhibition at 72 h, 30 µM was below 8.8%. Further, in “cells [3]”, the inhibition at 30 µM was 65.1%. Also, the inhibition at 3 µM in the data set “cells [4]” is 14.9%. Also, the results for the inhibition in data set [6] and in [8] were 6.7% and 6.4%, respectively. The inhibition at 10 µM in the data set “cells [9]” is 35.9%. The inhibition entry in data set [10] was “inactive”. For the same compound, in the data set “cells [11]”, the inhibition at 1 µM turned out to be 7.1%.

`COc1ccc([C@H]2Oc3c(OC)cc(/C=C/CO)cc3[C@@H]2CO)cc1OC` [Hierochin B]: in data set [1], the inhibition at 72 h, 1 µM is 0.3%. Besides, in data set [2], the inhibition at 72 h, 30 µM turned out to be 23.8%. In “cells [3]”, the inhibition at 30 µM worked out at 50.6%. In the data set “cells [4]”, the inhibition at 3 µM came out at 2.2%. For the same compound, the inhibition at 72 h, 10 µM in [5] worked out at 10.9%. In data set [7], the inhibition at 72 h, 3 µM worked out at 1.3%. For the same compound, in the data set “cells [9]”, the inhibition at 10 µM is 7.6%. Besides, in data set [12], the IC50 at 72 h was above 100 µM. Also, the inhibition at 1 µM in the data set “cells [11]” is -1.6%.

For `O=Cc1ccc(O)cc1` [4-HYDROXYBENZALDEHYDE], in [1], the inhibition at 72 h, 1 µM is -8.4%. In addition, the inhibition at 72 h, 30 µM in data set [2] was 17.6%. For the same compound, the inhibition at 30 µM in “cells [3]” was below 15.4%. The inhibition at 72 h, 10 µM in data set [5] was -21%. For the same compound, the inhibition at 72 h, 3 µM in data set [7] is -13.6%.

With `COc1cc(/C=C/C=O)ccc1O` [CONIFERYL ALDEHYDE], in data set [1], the inhibition at 72 h, 1 µM was -4.2%. Besides, the inhibition at 72 h, 30 µM in [2] came out at 11.5%. For the same compound, in the data set “cells [3]”, the inhibition at 30 µM amounted to 39.1%. The inhibition at 3 µM in the data set “cells [4]” came out at 11.6%. Also, the inhibition at 72 h, 10 µM in [5] is -0.5%. Also, the inhibition in [6] was determined as 4.2%; in data set [8], 1.6%. The inhibition at 72 h, 3 µM in data set [7] was -3.2%. In addition, the inhibition at 10 µM in “cells [9]” is 14%. In addition, the inhibition at 1 µM in the data set “cells [11]” came to 10.3%.

With `O=c1c(O)c(-c2ccc(O)cc2)oc2cc(O)cc(O)c12` [KAEMPFEROL], the inhibition at 72 h, 1 µM in [1] is 3%. Moreover, the inhibition at 72 h, 30 µM in data set [2] was determined as 16.3%. Further, the inhibition at 30 µM in the data set “cells [3]” stood at 58.1%. Moreover, the inhibition at 3 µM in the data set “cells [4]” came to 7.9%. Moreover, the inhibition at 72 h, 10 µM in data set [5] amounted to 13%. Besides, in data set [7], the inhibition at 72 h, 3 µM was 10.2%. Moreover, the inhibition at 10 µM in “cells [9]” turned out to be 18.6%. The inhibition entry in [10] was “inactive”. In addition, in “cells [11]”, the inhibition at 1 µM is -0.6%.
